The subject of the test is HeLa. The test is described as follows: Antitumor activity against Homo sapiens (human) HeLa cells assessed as inhibition of cell proliferation after 48 hr by SRB assay. It is filed as functional, cell-based. For orientation: In SRB staining, fixed cells bind dye roughly in proportion to their protein.
The IC50 is the concentration at which inhibition is half-maximal. For `CCOC1=NN(c2nc(Nc3ccc(S(N)(=O)=O)cc3)nc(-c3ccc(OC)c(OC)c3)c2C#N)C(=O)C1`, the IC50 was found to be 0.042 µM. Consider `COc1ccc(-c2nc(Nc3ccc(S(N)(=O)=O)cc3)n3c(=O)[nH]nc3c2C#N)cc1OC`, for which the IC50 came to 0.047 µM.

Consider `COc1ccc(-c2nc(Nc3ccc(S(N)(=O)=O)cc3)nc(N3N=C(C)CC3=O)c2C#N)cc1OC`, for which the IC50 stood at 0.046 µM. Turning to `COc1ccc(-c2nc(Nc3ccc(S(N)(=O)=O)cc3)n3nnnc3c2C#N)cc1OC`, the IC50 was found to be 0.039 µM. `COc1cccc2c1C(=O)c1c(O)c3c(c(O)c1C2=O)C[C@@](O)(C(=O)CO)C[C@@H]3O[C@H]1C[C@H](N)[C@H](O)[C@H](C)O1` [DOXORUBICIN]: the IC50 is 0.016 µM.

Turning to `COc1ccc(-c2nc(Nc3ccc(S(N)(=O)=O)cc3)n3c(C)nnc3c2C#N)cc1OC`, the IC50 came out at 0.048 µM. Turning to `COc1ccc(-c2nc(Nc3ccc(S(N)(=O)=O)cc3)nc(-n3nc(C)cc3C)c2C#N)cc1OC`, the IC50 stood at 0.041 µM. In the case of `COc1ccc(C2=C(C#N)C3=NCC(=O)N3C(Nc3ccc(S(N)(=O)=O)cc3)=N2)cc1OC`, the IC50 is 0.042 µM.

The values above are taken from ChEMBL document CHEMBL3045263, “Novel 2-thiopyrimidine derivatives as CDK2 inhibitors: molecular modeling, synthesis, and anti-tumor activity evaluation” (Med Chem Res, 2013).
